Data as given in PubChem BioAssay AID504539 (Broad Institute, 2011).

What follows are molecules tested on Cell-based prion protein 5' UTR reporter, plate reader (assay: prion protein 5' UTR mRNA inhibitors – cell-based, plate reader, cherry-picked samples, dose response (AID 504539)).

| Structure (SMILES) | AC50 |
| --- | --- |
| Cc1cccc(C(=O)O/N=C(\N)c2ccccn2)c1 | 915 nM |
| CCC1(OC(=O)CN)C(=O)OCc2c1cc1n(c2=O)Cc2cc3ccccc3nc2-1 (configuration not stated) | 987 nM |
| O=C(OCC(F)(F)F)c1cccc(COc2ccc3ccccc3c2)c1 | 376 nM |
| Cc1ccc(C(=O)c2cc([N+](=O)[O-])ccc2N2CCOCC2)c(C)c1 | 2940 nM |
| CC1=CC2OC3CC4OC(=O)C=CC=CC(C(C)O)OCC(O)C(C)CC(=O)OCC2(CC1O)C4(C)C31CO1 (configuration not stated) | < 38 nM |
| CCC(C)(C)c1ccc(Oc2ccc(N)cc2)cc1 | 173 nM |
| Cc1nc2cc(-c3ccccc3)sc2c(=O)n1N | 284 nM |
| Cc1cc2sc3ccc(C#CC4(O)CCCCC4)cc3c(=O)c2cc1C | < 38 nM |
| Brc1ccc(N=Nc2ccc3ccccc3n2)cc1 | 543 nM |
| COC(=O)Cc1[nH]n(-c2nc3ccccc3s2)c(=O)c1C(C)=Nc1ccc(Cl)cc1 | 70 nM |
| CN(NC(=O)c1ccccc1F)c1nc(C(F)(F)F)nc2ccccc12 | 1320 nM |
| O=C(N/N=C/c1ccccc1)c1[nH]c2ccc(Br)cc2c1-c1ccccc1 | 460 nM |
| CCC1=Nc2cc(C(=O)NCc3ccco3)ccc2Sc2ccc(C)cc21 | 652 nM |
| COc1ccc(N/C=C/C(=O)c2cc(OC)c(OC)c(OC)c2)cc1 | 2440 nM |
| Cc1ccc2oc(/N=C(\N)NC(=O)C(C)(C)C)nc2c1 | < 38 nM |
| COC(=O)c1c(N)sc(C(=O)NCCc2ccccc2)c1C | 413 nM |
| Cc1ccoc1C(=O)Nc1ccc(CC(=O)O)cc1 | 374 nM |
| COc1ccc(-c2cc3nc(C)n(N)c(=O)c3s2)cc1 | 113 nM |
| COC(=O)C1=C(C(=O)OC)SC2(S1)C(C(=O)OC)=C(C(=O)OC)Sc1c2ssc1=O | 2620 nM |
| Cc1ccccc1OCC(=O)Nc1cccc(C(=O)O)c1 | 422 nM |
| CC(=O)OC1C(O)C(C)OC(OC2C(OC(=O)C3CCC4C(C3)OC3(CC(OC(=O)/C=C/c5ccccc5)C(C)CO3)C43CO3)OC(C)C(O)C2OC(C)=O)C1O (configuration not stated) | 104 nM |
| NC(=O)c1cc([N+](=O)[O-])ccc1NCc1ccc(N)cc1 | 490 nM |
| Cc1nn(-c2ccccc2)c(C)c1/C=N/NC(=O)c1cc(-c2cccs2)[nH]n1 | 1070 nM |
| Cc1ccsc1/C=N/Nc1cccc(C(=O)O)c1 | 355 nM |
| CCC(C)Cn1c(O)cc2nn(-c3nc4ccccc4s3)c(=O)c-2c1C (configuration not stated) | 62 nM |
| CCN(CCO)c1ccc(N=Nc2cc(C)[nH]n2)cc1 | 471 nM |

| Structure (SMILES) | AC50 |
| --- | --- |
| COc1ccc(C(=O)c2cc([N+](=O)[O-])ccc2N2CCOCC2)cc1 | 397 nM |
| CSC1SCC2C(=O)N(C)C(C(C)C)C(=O)OCC(NC(=O)c3cnc4ccccc4n3)C(=O)NC(C)C(=O)N(C)C1C(=O)N(C)C(C(C)C)C(=O)OCC(NC(=O)c1cnc3ccccc3n1)C(=O)NC(C)C(=O)N2C (configuration not stated) | < 38 nM |
| C(=N\Nc1ccc2ccccc2n1)/c1ccc2c(c1)OCCO2 | 1220 nM |
| Cc1[nH]nc2ccc(-c3cncc(OC[C@@H](N)Cc4c[nH]c5ccccc45)c3)cc12 | 335 nM |
| CN(CCO)c1ccc(/C=N/Nc2nncc3ccccc23)cc1 | 412 nM |
| COc1cc(-c2noc(C)c2-c2ccc(N(C)C)nc2)cc(OC)c1OC | 358 nM |
| CC(=O)O[C@H]1C(=O)[C@@]2(C)[C@H]([C@H](OC(=O)c3ccccc3)[C@]3(O)C[C@H](OC(=O)[C@H](O)[C@@H](NC(=O)c4ccccc4)c4ccccc4)C(C)=C1C3(C)C)[C@]1(OC(C)=O)CO[C@@H]1C[C@@H]2O | 227 nM |
| C[C@H]1CCC/C=C/[C@@H]2C[C@H](O)C[C@H]2[C@H](O)[C@H](S(=O)c2ccc(O)cc2)CC(=O)O1 (some centres not stated) | 182 nM |
| Cc1ccc(-n2[nH]c(=O)c(-c3ccccn3)c2C)cc1 | 368 nM |
| CCCCCN1C=CC(=C2C(=O)c3ccccc3C2=O)C=C1 | 248 nM |
| COc1ccccc1-c1nnc2sc(-c3cc4ccccc4o3)nn12 | 4300 nM |
| Cc1ccc(C(=O)O/N=C(\N)c2ccccn2)c(C)c1 | 46 nM |
| CCCC1=Nc2cc(C(=O)NCCCOCC)ccc2Sc2ccccc21 | 434 nM |
| O=C(CN1C(=O)c2ccccc2S1(=O)=O)N1CCc2ccccc21 | 582 nM |
| NC(=O)c1cc2c3ccccc3ccn2c1-c1ccccc1 | 635 nM |
| CC1OC(OC2C=C3CCC4C(CCC5(C)C(c6ccc(=O)oc6)CCC45O)C3(C)CC2)C(O)C(OC2OC(CO)C(O)C(O)C2O)C1O (configuration not stated) | < 38 nM |
| CC(=O)OC1CC(OC2C(O)CC(OC3C(O)CC(OC4CCC5(C)C(CCC6C5CCC5(C)C(C7=CC(=O)OC7)C(O)CC65O)C4)OC3C)OC2C)OC(C)C1OC1OC(CO)C(O)C(O)C1O (configuration not stated) | 370 nM |
| COc1ccc(C2=Nn3c(nnc3-c3ccccc3OC)SC2)cc1OC1CCCC1 | 2970 nM |
| COc1ccc2[nH]c(-c3cccc(F)c3)cc(=O)c2c1 | 1550 nM |
| C=Cc1cc(OC)c2c(c1)c(=O)oc1c2cc(OC)c2c(O)ccc(C3OC(C)C(O)C(C)(O)C3O)c21 (configuration not stated) | 211 nM |
| CCCCN1C=CC(=C2C(=O)c3ccccc3C2=O)C=C1 | 248 nM |
| C=CCn1c(C)cc(C(=O)CN2C(=O)c3ccccc3S2(=O)=O)c1C | 249 nM |
| CC(=O)OC1C2(CC3N4C(=O)C5(CO)SSC4(CC31O)C(=O)N5C)OC(C)C(C)(C)C2=O (configuration not stated) | 295 nM |
| CCN1C=CC(=C2C(=O)c3ccccc3C2=O)C=C1 | 89 nM |
| Cc1cc(C(=O)COC(=O)c2ccccc2O)c(C)n1CC1CCCO1 (configuration not stated) | < 38 nM |
| Cc1csc(NC(=O)CCc2c(C)nc3cc(-c4ccc(Cl)cc4)nn3c2C)n1 | 1160 nM |
